One compound from PMC6193938, “Characterization of a novel AICARFT inhibitor which potently elevates ZMP and has anti-tumor activity in murine models” (Scientific Reports, 2018) can be followed below.

Each structure is given as a SMILES string.

One assay deals with T1, BRK (Homo sapiens, UniProt Q13882).
T1 construct: purchased CEREP Panlabs (Eurofins)
The assay is described as follows: CEREP protein kinase assay. It counts as biochemical.

A further assay addresses T2, NEK2 (Homo sapiens, UniProt P51955).
T2 construct: purchased CEREP Panlabs (Eurofins)
T2 sequence (P51955 1-445): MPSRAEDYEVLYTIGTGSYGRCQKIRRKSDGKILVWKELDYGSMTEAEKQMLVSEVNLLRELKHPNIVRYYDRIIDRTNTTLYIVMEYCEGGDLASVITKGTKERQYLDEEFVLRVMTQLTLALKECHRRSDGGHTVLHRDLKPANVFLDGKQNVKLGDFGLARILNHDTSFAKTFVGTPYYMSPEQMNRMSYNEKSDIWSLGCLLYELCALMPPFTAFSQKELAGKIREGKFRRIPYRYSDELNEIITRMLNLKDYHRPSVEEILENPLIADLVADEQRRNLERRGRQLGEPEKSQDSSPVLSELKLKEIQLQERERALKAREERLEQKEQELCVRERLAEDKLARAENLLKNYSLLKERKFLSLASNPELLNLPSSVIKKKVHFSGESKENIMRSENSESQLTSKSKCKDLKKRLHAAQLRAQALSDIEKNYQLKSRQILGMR
The assay can be described thus: CEREP protein kinase assay. Type of assay: biochemical.

The test system of assay [1] is AMPK T172 phosphorylation in NCI-H460. The assay can be described thus: Western analysis after overnight treatment in tissue culture. It counts as cell-based, human. Conditions: 0 to 20 μM, RPMI media. As for the experimental part: (§1) The levels of total actin, AMPKα and P70S6K are also shown. […] Full images and the croppings used in this figure are shown in Supplemental Figures S4–S13.
(§2) Antibodies were purchased as follows: pAMPK Thr172 (Cell Signaling #2535), p-p70S6 Thr389 (Cell Signaling #9205), total p70S6 (Cell Signaling #2708), total AMPKα (Cell Signaling #2793) and Actin (Sigma #A5441). Frozen tumor samples were lysed with 500 µL ice cold lysis buffer plus Halt protease inhibitor (ThermoFisher #78430) using a Power Gen 125 tissue grinder (Fisher Scientific). Western blots were run as described in the supplemental material.
(§3) Western Blots: Lysis buffer is 0.01 mg/mL Leupeptin, 0.01 mg/mL Trypsin-Chymotrypsin, 0.01 mg/mL TPCK, 0.1 mg/mL Aprotinin, 60 mM β-Gly PO4, 1% Triton-100, 25 mM Tris pH 7.5, 2.5 µM Na2Pyrophosphate, 150 mM NaCl, 0.76 mg/mL TAME, 6.2 mg/mL PNPP, 0.8 mg/mL Benzamidine, 0.2 mg/mL Na3V04, 0.42 mg/mL NaF, 0.5 mg/mL PMSF or PEFA, 1 mM DTT, 15 mM EDTA pH 8.0, 5 mM EGTA pH 8.0, 1 µM Okadaic acid, and 1 µM microcystine. RNA and DNA were degraded by addition of Benzonase (Novagen) with a 30 min incubation on ice. Lysates were cleared by centrifugation at 4 °C for 10 min at 16,000 x g. Protein content was measured using Pierce BCA protein assay kit (Thermo Scientific). Twenty ug of total protein was resolved on a 4-20% Tris HCl Criterion XT precast gel (BioRad) at 100 V for 90 minutes. Transfer electrophoresed proteins to a 0.2 µm nitrocellulose membrane using Trans Blot Turbo System (BioRad). Block membranes for 1 hr at RT in Odyssey blocking buffer (LiCor). Probe overnight 4°C for primary antibodies. Wash blots 3 x 5 min in 20 mL PBS-0.1% Tween-20.

Assay [2] concerns AMPK T172 phosphorylation in MDA-MB-231met2. The assay is described as above. It counts as cell-based, human. Conditions: 0 to 20 μM, RPMI media. As for the experimental part:
as §1, §2, §3

Assay [3] has as its system P70S6K T389 phosphorylation in NCI-H460. Described as above. It counts as cell-based, human. Conditions: 0 to 20 μM, RPMI media. As for the experimental part:
as §1, §2, §3

Assay [4] has as its system P70S6K T389 phosphorylation in MDA-MB-231met2. The description is as above. It counts as cell-based, human. Conditions: 0 to 20 μM, RPMI media. As for the experimental part:
as §1, §2, §3

Another assay has as its target T3, PIM1 (Homo sapiens, UniProt P11309).
T3 construct: purchased CEREP Panlabs (Eurofins)
The assay can be described thus: CEREP protein kinase assay. Type of assay: biochemical.

The next assay has as its system cell lines of Table 1. The assay is described as follows: MS detection of ZMP in cultured cells, average over cell lines. Conditions: Homo sapiens. Type of assay: cell-based. As for the experimental part: Cells lines were acquired from cell banks, see supplemental material, grown using the cell banks recommended culture conditions (Supplemental Table 3). In some experiments noted “low folate” the cells were washed and grown in folate free RPMI-1640 media (Gibco #27016-021) supplemented with 5 ml 1 M Hepes, 5 ml 100 mM Na pyruvate, 2.5 mg/ml glucose and 10% defined FBS (Hyclone #SH30070) per 500 mL media for 5–7 days to deplete intracellular folate levels prior to the start of the experiment. Where noted, cells were maintained in complete “high folate” RPMI-1640 media (ATCC #30-2001) with 10% defined FBS to contrast with the low folate conditions.
ZMP was detected in cultured cells via mass spec analysis. Cells were plated in 96-well plates at 25,000 cells per well in 100 µL with either high or low folate RPMI media and incubated overnight at 37 °C with 5% CO2. Cells were treated with inhibitor compounds for 16 hours, 0.5% DMSO final concentration. […]
ZMP, AICAr and dUMP were detected using positive ion TurboIonSpray® multiple reaction monitoring mode and the data were processed with AB Sciex MultiQuant™. Back-calculated ZMP concentrations were fit to a four-parameter logistic equation using ACTIVITYBASE 4.0 to determine EC50 values relative to the maximum observed metabolite levels.

In the next assay the target is T4, EPHA5 (Homo sapiens, UniProt P54756).
T4 construct: purchased CEREP Panlabs (Eurofins)
The assay can be described thus: CEREP protein kinase assay. Type of assay: biochemical.

Usually inhibition stands for the drop in the measured response relative to a control, in per cent. What is called EC50 is the concentration giving half of the maximal effect.

T3 sequence (P11309 whole entry): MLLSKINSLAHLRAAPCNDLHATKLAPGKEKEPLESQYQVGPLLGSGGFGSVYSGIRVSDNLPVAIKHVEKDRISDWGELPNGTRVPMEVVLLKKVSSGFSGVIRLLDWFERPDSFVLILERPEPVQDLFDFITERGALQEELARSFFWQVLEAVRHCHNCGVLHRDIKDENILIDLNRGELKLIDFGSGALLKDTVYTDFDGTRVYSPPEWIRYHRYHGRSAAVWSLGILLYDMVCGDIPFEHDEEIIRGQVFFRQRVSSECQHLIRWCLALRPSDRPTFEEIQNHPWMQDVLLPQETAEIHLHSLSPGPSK
T4 sequence (P54756 25-1037): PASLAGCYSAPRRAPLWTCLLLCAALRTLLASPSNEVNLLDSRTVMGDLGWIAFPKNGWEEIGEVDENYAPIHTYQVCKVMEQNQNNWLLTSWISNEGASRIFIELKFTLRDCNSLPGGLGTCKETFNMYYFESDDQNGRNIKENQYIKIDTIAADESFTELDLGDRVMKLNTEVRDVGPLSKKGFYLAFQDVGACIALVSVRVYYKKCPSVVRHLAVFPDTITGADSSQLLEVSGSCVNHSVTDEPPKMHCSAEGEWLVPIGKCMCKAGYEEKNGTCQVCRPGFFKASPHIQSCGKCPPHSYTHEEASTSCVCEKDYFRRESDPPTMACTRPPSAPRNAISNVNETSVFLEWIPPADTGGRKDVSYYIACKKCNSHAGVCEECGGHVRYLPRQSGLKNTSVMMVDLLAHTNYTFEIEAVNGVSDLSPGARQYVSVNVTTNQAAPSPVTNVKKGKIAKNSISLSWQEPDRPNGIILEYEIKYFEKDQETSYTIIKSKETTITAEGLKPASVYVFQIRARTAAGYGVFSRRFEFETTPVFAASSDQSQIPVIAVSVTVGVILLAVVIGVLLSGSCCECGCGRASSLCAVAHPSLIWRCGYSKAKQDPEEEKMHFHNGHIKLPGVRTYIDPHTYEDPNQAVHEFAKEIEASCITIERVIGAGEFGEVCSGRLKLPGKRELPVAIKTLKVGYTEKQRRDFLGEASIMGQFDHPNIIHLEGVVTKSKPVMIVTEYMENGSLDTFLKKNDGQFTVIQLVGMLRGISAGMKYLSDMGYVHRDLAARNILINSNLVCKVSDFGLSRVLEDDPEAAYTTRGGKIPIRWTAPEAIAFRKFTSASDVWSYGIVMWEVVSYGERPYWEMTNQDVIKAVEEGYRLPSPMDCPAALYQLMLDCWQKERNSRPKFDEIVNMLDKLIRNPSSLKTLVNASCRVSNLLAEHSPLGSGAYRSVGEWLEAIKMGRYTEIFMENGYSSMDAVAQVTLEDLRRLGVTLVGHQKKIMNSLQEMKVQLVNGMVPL
T1 sequence (Q13882 whole entry): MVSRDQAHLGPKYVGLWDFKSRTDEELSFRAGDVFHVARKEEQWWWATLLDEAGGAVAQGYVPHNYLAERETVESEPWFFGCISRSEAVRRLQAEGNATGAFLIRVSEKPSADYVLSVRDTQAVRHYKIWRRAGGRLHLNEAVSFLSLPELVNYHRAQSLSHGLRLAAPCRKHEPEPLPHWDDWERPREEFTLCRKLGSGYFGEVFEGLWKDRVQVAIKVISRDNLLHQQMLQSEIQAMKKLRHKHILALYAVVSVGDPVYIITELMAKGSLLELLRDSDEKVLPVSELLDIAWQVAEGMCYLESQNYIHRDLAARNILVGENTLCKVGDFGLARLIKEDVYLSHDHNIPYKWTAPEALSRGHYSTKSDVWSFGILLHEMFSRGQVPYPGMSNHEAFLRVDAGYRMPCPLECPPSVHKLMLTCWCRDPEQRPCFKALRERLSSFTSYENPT

For `O=c1[nH]ccc2cc(F)c(NS(=O)(=O)c3ccc(N4CC[C@@H](O)C4)s3)cc12` [LSN3213128, N-(6-Fluoro-1-oxo-1,2-dihydroisoquinolin-7-yl)-5-[(3R)-3-hydroxypyrrolidin-1-yl]thiophene-2-sulfonamide], the inhibition at 0.2 µM was -32.5% against BRK (@ 0.2 uM), -9.52% at NEK2 (@ 0.2 uM), 7.96% at PIM1 (@ 0.2 uM) and 3.96% at EPHA5 (@ 0.2 uM). For the same compound, the inhibition at 2 µM on BRK (@ 2 uM) was -9.31%; against NEK2 (@ 2 uM) it was 5.24%; against PIM1 (@ 2 uM), 13.3%; at EPHA5 (@ 2 uM), 9.58%. Moreover, the inhibition at 20 µM is -3.2% at BRK (@ 20 uM), -6.75% against NEK2 (@ 20 uM), 26.5% against PIM1 (@ 20 uM) and 19.4% at EPHA5 (@ 20 uM). Also, the “phosphorylated AMPK T172” value in [1] is given as “not increased”. For the same compound, the “AMPK T172 phosphorylation” value in assay [2] is “expected increase”. In [3], the “phosphorylation of P70S6K T389” value is recorded as “inhibits the phosphorylation”. In addition, in assay [4], the “P70S6K T389 phosphorylation” value is given as “corresponding decrease”. The EC50 in the assay on cell lines of Table 1 (low folate media, 12 cell lines) worked out at 4.9 ± 2.6 nM; with cell lines of Table 1 (normal RPMI, 8 cell lines) it was 1210 nM.
